In publication PMC4868641 (Chemical research in toxicology, 2016):

Legend:
human kidney microsomes [1] = experiment: P450-mediated N-oxidation in human kidney microsomes; type: in vitro ADME; settings: limit of detection 50 pmol/min/mg protein
rodents = settings: cited from earlier work
calf thymus DNA = experiment: DNA adduct formation; type: biochemical; settings: 0.5 μM, calf thymus DNA 0.4 mg/mL, pH 7.4, 30 min, 37 °C
[2] = pH 7.0; cited from earlier work
mice = settings: cited from earlier work
UGT2B10 [3] = settings: cited from earlier work
[4] = test system: other UGT1A and UGT2B isoforms; settings: cited from earlier work
human kidney microsomes [5] = experiment: Inhibition of HONH-AαC glucuronidation in human kidney microsomes; type: biochemical; settings: niflumic acid 0.1-2.5 μM, HONH-AαC 1 μM
human liver microsomes = experiment: Inhibition of HONH-AαC glucuronidation in human liver microsomes; type: biochemical; settings: niflumic acid 0.1-2.5 μM, HONH-AαC 1 μM
UGT1A9 [6] = target: T1, UGT1A9 (Homo sapiens, UniProt O60656); experiment: Inhibition of propofol glucuronidation in human liver microsomes; type: biochemical; settings: niflumic acid 0.1-2.5 μM, propofol 100 μM
T1 sequence (O60656 26-530): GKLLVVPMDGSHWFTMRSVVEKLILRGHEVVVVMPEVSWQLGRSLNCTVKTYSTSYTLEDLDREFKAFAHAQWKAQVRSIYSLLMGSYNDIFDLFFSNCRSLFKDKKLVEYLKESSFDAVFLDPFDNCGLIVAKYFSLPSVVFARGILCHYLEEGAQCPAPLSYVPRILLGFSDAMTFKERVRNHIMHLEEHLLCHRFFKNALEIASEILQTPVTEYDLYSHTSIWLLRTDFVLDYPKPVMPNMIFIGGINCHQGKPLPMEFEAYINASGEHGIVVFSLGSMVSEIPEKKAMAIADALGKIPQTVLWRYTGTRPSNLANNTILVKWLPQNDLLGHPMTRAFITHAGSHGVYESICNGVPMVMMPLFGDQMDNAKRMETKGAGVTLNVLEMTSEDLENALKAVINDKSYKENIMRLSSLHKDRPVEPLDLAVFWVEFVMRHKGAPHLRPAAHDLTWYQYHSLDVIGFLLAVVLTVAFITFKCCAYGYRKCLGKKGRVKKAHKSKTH

UGT1A1 [7] = experiment: Inhibition of estradiol-3-O-Gluc formation in human liver microsomes; type: biochemical; settings: niflumic acid 0.1-2.5 μM, estradiol 25 μM
[8] = test system: human microsomes (liver, kidney, colon, rectum); type: in vitro ADME; settings: 1 μM, pH 7.5
UGT1A9 [9] = target: T1, UGT1A9; settings: cited from earlier work
UGT1A1 [10] = settings: cited from earlier work
UGT2B10 [11] = settings: cited from earlier work; remark: listed apart in the source

## Cn1c(N)nc2ncc(-c3ccccc3)cc21 [PhIP, 2-amino-1-methyl-6-phenylimidazo[4,5-b]pyridine]
Human kidney microsomes [1]
  rate of P450-mediated N-oxidation: very low
rodents
  cancer induction: induces lymphoma, pancreatic, colorectal, and prostate cancers

## Cn1c(NO[C@@H]2O[C@H](C(=O)O)[C@@H](O)[C@H](O)[C@H]2O)nc2ncc(-c3ccccc3)cc21 [PhIP-HN^2-O-Gluc, O-(β-D-glucosidurony1)-2-hydroxyamino-1-methyl-6-phenylimidazo[4,5-b]pyridine]
Calf thymus DNA
  DNA adduct formation (dG-C8-AαC / dG-C8-PhIP): higher amounts of dG-C8-PhIP than HONH-PhIP

## O=C(O)[C@H]1O[C@@H](ONc2ccc3c(n2)[nH]c2ccccc23)[C@H](O)[C@@H](O)[C@@H]1O [AαC-HN^2-O-Gluc, O-(β-D-glucosidurony1)-2-hydroxyamino-9H-pyrido[2,3-b]indole]
[2]
  half-life: exceeds 6 h

## Cn1c(N(O)[C@@H]2O[C@H](C(=O)O)[C@@H](O)[C@H](O)[C@H]2O)nc2ncc(-c3ccccc3)cc21 [PhIP-HON^2-Gluc, N^2-(β-D-glucosidurony1)-2-hydroxyamino-1-methyl-6-phenylimidazo[4,5-b]pyridine]
Calf thymus DNA
  DNA adduct formation (dG-C8-AαC / dG-C8-PhIP): not detected

## Nc1ccc2c(n1)[nH]c1ccccc12 [AαC, 2-Amino-9H-pyrido[2,3-b]indole]
Human kidney microsomes [1]
  rate of P450-mediated N-oxidation: very low
mice; colon of mice
  mutations and early biomarkers of neoplasia: induces lacI mutations and aberrant crypt foci
mice; mice
  tumor induction: induces liver and blood vessel tumors

## O=C(O)c1cccnc1Nc1cccc(C(F)(F)F)c1 [Niflumic acid, niflumic acid]
UGT2B10 [3]
  effect on UGT2B10 activity: does not alter
[4]
  effect on activities of other UGT1A and UGT2B isoforms: little effect
Human kidney microsomes [5]
  effect on AαC-HN^2-O-Gluc formation: greatly decreased
  effect on AαC-HON^2-Gluc formation: greatly decreased
Human liver microsomes
  effect on AαC-HN^2-O-Gluc formation: concentration-dependent inhibition
  effect on AαC-HON^2-Gluc formation: unchanged
UGT1A9 [6]
  inhibition of glucuronidation of propofol (UGT1A9 substrate): effective in inhibiting
UGT1A1 [7]
  effect on formation of estradiol-3-O-Gluc (UGT1A1): unaffected

## O=C(O)[C@H]1O[C@@H](N(O)c2ccc3c(n2)[nH]c2ccccc23)[C@H](O)[C@@H](O)[C@@H]1O [AαC-HON^2-Gluc, N^2-(β-D-glucosidurony1)-2-hydroxyamino-9H-pyrido[2,3-b]indole]
Calf thymus DNA
  DNA adduct formation (dG-C8-AαC / dG-C8-PhIP): considerably lower than HONH-AαC

## ONc1ccc2c(n1)[nH]c1ccccc12 [HONH-AαC, 2-hydroxyamino-9H-pyrido[2,3-b]indole]
[8]
  principal Gluc conjugate formed: AαC-HN^2-O-Gluc
[8]; 20 min
  predominant Gluc conjugate formed: AαC-HON^2-Gluc
Calf thymus DNA
  DNA adduct formation (dG-C8-AαC / dG-C8-PhIP): comparable levels
UGT1A9 [9]
  Km: 6.3 µM

## Cn1c(NO)nc2ncc(-c3ccccc3)cc21 [HONH-PhIP, 2-hydroxyamino-1-methyl-6-phenylimidazo[4,5-b]pyridine]
Calf thymus DNA
  DNA adduct formation (dG-C8-AαC / dG-C8-PhIP): comparable levels
UGT1A9 [9]
  Km: 36 µM
UGT1A1 [10]
  Km: 19 µM
UGT2B10 [11]
  Km: 58 µM
